Measured values: the supplement of paper PMC10307832

These cell lines were tested with CC1(COc2ccc3c(c2)ncn3-c2ccc3cccc(N4CCC(N)CC4)c3n2)COC1 [Crenolanib] + CC(=O)c1c(C)c2cnc(Nc3ccc(N4CCNCC4)cn3)nc2n(C2CCCC2)c1=O [Palbociclib] (partner 0.5 µM) (assay: relative viability (nuclei count vs DMSO), 5 days (fraction); higher = more cells survive). Details: first compound 0.01 µM.
Procedure, shortened: (§1)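 After 5 days of treatment, lung cancer cells in 1536-well plates were fixed and stained in a single step (final 0.05% Triton X-100, 1% formaldehyde, 1 ug/ml Hoechst) and their nuclei counted on 4× images. Treatment had been applied by pin tool the day after seeding as one drug alone or as a fixed anchor-drug dose with five library-drug doses (not always all listed) in √10 steps. Relative viability is the nuclei count of treated wells divided by that of vehicle wells, and values are medians of duplicate plates.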
NCI-H522 showed a relative viability of 1.15.
Cell Line NCI-H838 has a relative viability of 0.244.
With NCI-H1651 the relative viability was 0.531.
For NCI-H1734, the relative viability was 0.515.
Cell Line NCI-H2009 has a relative viability of 0.219.
For EPLC-272H, the relative viability was 0.336.
PC-14 showed a relative viability of 0.489.
In the case of LCLC-97TM1, the relative viability is reported as 0.244.
In the case of NCI-H2228, the relative viability is reported as 0.758.
For EMC-BAC-2, the relative viability was 0.525.
With NCI-H2087 the relative viability was 0.248.
In the case of HCC-44, the relative viability is reported as 1.02.
NCI-H1648 gave a relative viability of 0.254.

Same assay, conditions: first compound 0.03162 µM
With NCI-H522 the relative viability was 1.06.
Cell Line NCI-H838 has a relative viability of 0.232.
For NCI-H1651, the relative viability was 0.518.
In the case of NCI-H1734, the relative viability is reported as 0.369.
NCI-H2009 showed a relative viability of 0.22.
Cell Line EPLC-272H has a relative viability of 0.299.
PC-14 was tested, and the relative viability was 0.53.
With LCLC-97TM1 the relative viability was 0.183.
NCI-H2228 was tested, and the relative viability was 0.866.
NCI-H2087 showed a relative viability of 0.249.
Work on HCC-44 yielded a relative viability of 0.897.

Same assay, conditions: first compound 0.1 µM
In the case of NCI-H522, the relative viability is reported as 0.963.
In the case of NCI-H838, the relative viability is reported as 0.21.
Work on NCI-H1651 yielded a relative viability of 0.516.
Cell Line NCI-H1734 has a relative viability of 0.372.
NCI-H2009 showed a relative viability of 0.251.
For EPLC-272H, the relative viability was 0.305.
PC-14 was tested, and the relative viability was 0.473.
LCLC-97TM1 gave a relative viability of 0.268.
Cell Line NCI-H2228 has a relative viability of 0.629.
EMC-BAC-2 showed a relative viability of 0.551.
Work on NCI-H2087 yielded a relative viability of 0.233.
Cell Line HCC-44 has a relative viability of 0.939.
Cell Line NCI-H1648 has a relative viability of 0.262.

Same assay, conditions: first compound 0.3162 µM
Work on NCI-H522 yielded a relative viability of 0.881.
For NCI-H838, the relative viability was 0.232.
With NCI-H1651 the relative viability was 0.522.
With NCI-H1734 the relative viability was 0.338.
For NCI-H2009, the relative viability was 0.186.
Cell Line EPLC-272H has a relative viability of 0.339.
Work on PC-14 yielded a relative viability of 0.593.
In the case of LCLC-97TM1, the relative viability is reported as 0.277.
NCI-H2228 was tested, and the relative viability was 0.92.
With EMC-BAC-2 the relative viability was 0.486.
In the case of NCI-H2087, the relative viability is reported as 0.211.
Cell Line HCC-44 has a relative viability of 0.994.
In the case of NCI-H1648, the relative viability is reported as 0.29.

Same assay, conditions: first compound 1 µM
NCI-H522 gave a relative viability of 0.971.
With NCI-H838 the relative viability was 0.205.
For NCI-H1651, the relative viability was 0.495.
NCI-H1734 was tested, and the relative viability was 0.376.
Work on NCI-H2009 yielded a relative viability of 0.19.
EPLC-272H showed a relative viability of 0.313.
With PC-14 the relative viability was 0.354.
With LCLC-97TM1 the relative viability was 0.232.
NCI-H2228 gave a relative viability of 0.815.
Work on EMC-BAC-2 yielded a relative viability of 0.51.
NCI-H2087 gave a relative viability of 0.318.
In the case of HCC-44, the relative viability is reported as 0.921.
NCI-H1648 was tested, and the relative viability was 0.267.

The cell lines below were run with CC1(COc2ccc3c(c2)ncn3-c2ccc3cccc(N4CCC(N)CC4)c3n2)COC1 [Crenolanib] + COc1cccc2cc(-c3nc([C@H]4CC[C@H](C(=O)O)CC4)n4ncnc(N)c34)[nH]c12 [OSI-027] (partner 0.5 µM) in the same assay as above. Details: first compound 0.01 µM.
Procedure, shortened: as §1
Cell Line NCI-H522 has a relative viability of 0.936.
NCI-H1623 gave a relative viability of 0.434.
For NCI-H838, the relative viability was 0.378.
With NCI-H1651 the relative viability was 0.77.
In the case of NCI-H1734, the relative viability is reported as 0.706.
NCI-H2009 gave a relative viability of 0.766.
Work on EPLC-272H yielded a relative viability of 0.315.
PC-14 showed a relative viability of 0.883.
LCLC-97TM1 was tested, and the relative viability was 0.601.
For NCI-H596, the relative viability was 0.866.
Work on NCI-H2228 yielded a relative viability of 0.6.
EMC-BAC-2 showed a relative viability of 0.438.
With NCI-H2087 the relative viability was 0.664.
Work on HCC-44 yielded a relative viability of 0.498.
Cell Line NCI-H1648 has a relative viability of 0.245.
Cell Line NCI-H1563 has a relative viability of 0.768.

Same assay, conditions: first compound 0.03162 µM
NCI-H522 showed a relative viability of 0.708.
Cell Line NCI-H1623 has a relative viability of 0.405.
With NCI-H838 the relative viability was 0.358.
Cell Line NCI-H1651 has a relative viability of 0.668.
Cell Line NCI-H1734 has a relative viability of 0.563.
Work on NCI-H2009 yielded a relative viability of 0.636.
Cell Line EPLC-272H has a relative viability of 0.288.
PC-14 was tested, and the relative viability was 0.776.
LCLC-97TM1 was tested, and the relative viability was 0.51.
In the case of NCI-H596, the relative viability is reported as 0.84.
NCI-H2228 gave a relative viability of 0.495.
For EMC-BAC-2, the relative viability was 0.376.
NCI-H2087 showed a relative viability of 0.642.
HCC-44 gave a relative viability of 0.496.
In the case of NCI-H1648, the relative viability is reported as 0.271.
NCI-H1563 showed a relative viability of 0.807.

Same assay, conditions: first compound 0.1 µM
With NCI-H522 the relative viability was 0.728.
Work on NCI-H1623 yielded a relative viability of 0.418.
With NCI-H838 the relative viability was 0.418.
With NCI-H1651 the relative viability was 0.715.
For NCI-H1734, the relative viability was 0.561.
NCI-H2009 was tested, and the relative viability was 0.623.
Work on EPLC-272H yielded a relative viability of 0.249.
PC-14 was tested, and the relative viability was 0.764.
LCLC-97TM1 was tested, and the relative viability was 0.469.
NCI-H596 was tested, and the relative viability was 0.696.
For NCI-H2228, the relative viability was 0.513.
In the case of EMC-BAC-2, the relative viability is reported as 0.411.
NCI-H2087 showed a relative viability of 0.471.
Work on HCC-44 yielded a relative viability of 0.611.
NCI-H1648 was tested, and the relative viability was 0.247.
In the case of NCI-H1563, the relative viability is reported as 0.764.

Same assay, conditions: first compound 0.3162 µM
Work on NCI-H522 yielded a relative viability of 0.655.
For NCI-H1623, the relative viability was 0.437.
Work on NCI-H838 yielded a relative viability of 0.366.
For NCI-H1651, the relative viability was 0.674.
In the case of NCI-H1734, the relative viability is reported as 0.822.
NCI-H2009 showed a relative viability of 0.688.
In the case of EPLC-272H, the relative viability is reported as 0.296.
Cell Line PC-14 has a relative viability of 0.816.
With LCLC-97TM1 the relative viability was 0.667.
NCI-H596 gave a relative viability of 0.703.
In the case of NCI-H2228, the relative viability is reported as 0.687.
In the case of EMC-BAC-2, the relative viability is reported as 0.424.
NCI-H2087 showed a relative viability of 0.546.
Cell Line HCC-44 has a relative viability of 0.519.
In the case of NCI-H1648, the relative viability is reported as 0.26.
Work on NCI-H1563 yielded a relative viability of 0.752.

Same assay, conditions: first compound 1 µM
Work on NCI-H522 yielded a relative viability of 0.72.
NCI-H1623 showed a relative viability of 0.387.
In the case of NCI-H838, the relative viability is reported as 0.283.
NCI-H1651 was tested, and the relative viability was 0.702.
With NCI-H1734 the relative viability was 0.566.
In the case of NCI-H2009, the relative viability is reported as 0.581.
EPLC-272H gave a relative viability of 0.329.
Work on PC-14 yielded a relative viability of 0.617.
With LCLC-97TM1 the relative viability was 0.374.
Work on NCI-H596 yielded a relative viability of 0.731.
Cell Line NCI-H2228 has a relative viability of 0.578.
EMC-BAC-2 showed a relative viability of 0.398.
With NCI-H2087 the relative viability was 0.467.
Work on HCC-44 yielded a relative viability of 0.434.
In the case of NCI-H1648, the relative viability is reported as 0.251.
